Drawing on BindingDB's records for PubMed 40236523 (Emory University), this text covers IC50 for 5 compounds.

The target in the experiment is Signal transducer and activator of transcription 3 (Homo sapiens, UniProt P40763). Kind of experiment: Inhibition of STAT3 phosphorylation in human PBMC cells preincubated for 30 mins followed by addition of IL-23 and measured after 10 mins.

SMILES strings stand for the structures. Counter-ions that a name gives are not always drawn. Where a SMILES comes first, the peptide text is derived from it. Bridges are numbered along the chain shown (N, C = ends). [ ]: non-standard residue; d: D form. The star is where a group is joined. Trp(7-Me) = Cc1cccc2c(C[C@H](N)C(=O)O)c[nH]c12; Lys(Me3) = C[N+](C)(C)CCCC[C@H](N)C(=O)O; 2Nal = N[C@@H](Cc1ccc2ccccc2c1)C(=O)O; AEF = NCCOc1ccc(C[C@H](N)C(=O)O)cc1; 3Pal = N[C@@H](Cc1cccnc1)C(=O)O; Lys(Me) = CNCCCC[C@H](N)C(=O)O; Pen = CC(C)(S)[C@H](N)C(=O)O; Thp = NC1(C(=O)O)CCOCC1; Me2NCH2CH2 = CN(C)CC*; Tfa = O=C(C(F)(F)F)*; Sar = CNCC(=O)O

Chain of Signal transducer and activator of transcription 3 (P40763 whole entry): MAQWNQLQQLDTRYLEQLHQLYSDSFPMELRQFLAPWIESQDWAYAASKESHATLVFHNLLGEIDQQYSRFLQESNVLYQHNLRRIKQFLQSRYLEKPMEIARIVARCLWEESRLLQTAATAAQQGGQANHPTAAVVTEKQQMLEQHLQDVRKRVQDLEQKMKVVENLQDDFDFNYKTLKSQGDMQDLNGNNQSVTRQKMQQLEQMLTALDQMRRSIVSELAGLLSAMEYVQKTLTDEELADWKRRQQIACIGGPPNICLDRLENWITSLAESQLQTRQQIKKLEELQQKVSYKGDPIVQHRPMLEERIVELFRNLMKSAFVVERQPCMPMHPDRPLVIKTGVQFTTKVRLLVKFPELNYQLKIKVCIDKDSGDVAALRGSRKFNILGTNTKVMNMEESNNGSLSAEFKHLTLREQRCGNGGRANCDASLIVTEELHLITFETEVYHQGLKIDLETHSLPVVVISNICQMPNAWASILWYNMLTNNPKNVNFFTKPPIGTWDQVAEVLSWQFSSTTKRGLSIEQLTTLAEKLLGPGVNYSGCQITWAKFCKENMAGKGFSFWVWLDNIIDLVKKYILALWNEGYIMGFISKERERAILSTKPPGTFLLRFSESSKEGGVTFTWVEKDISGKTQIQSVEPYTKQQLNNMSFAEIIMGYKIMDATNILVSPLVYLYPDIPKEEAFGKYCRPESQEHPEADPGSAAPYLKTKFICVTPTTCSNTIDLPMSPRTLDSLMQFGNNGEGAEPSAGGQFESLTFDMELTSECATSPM

As to `CC(=O)NCCCC[C@@H]1NC(=O)[C@H](Cc2c[nH]c3c(C)cccc23)NC(=O)[C@H]([C@@H](C)O)NC(=O)[C@H](CC(N)=O)NC(=O)[C@@H](NC(=O)CCOCCOCC[N+](C)(C)C)C(C)(C)SSC(C)(C)[C@@H](C(=O)N[C@@H](Cc2ccc(OCCN)cc2)C(=O)N[C@@H](Cc2ccc3ccccc3c2)C(=O)NC2(C(=O)N[C@@H](CCC(=O)O)C(=O)N[C@@H](CC(N)=O)C(=O)N[C@@H](Cc3cccnc3)C(=O)N(C)CC(N)=O)CCOCC2)NC1=O`, the IC50 (commonly the concentration that inhibits the measured activity by half) amounted to 6 pM. The figure for `CC(=O)NCCCC[C@@H]1NC(=O)[C@H](Cc2c[nH]c3c(C)cccc23)NC(=O)[C@H]([C@@H](C)O)NC(=O)[C@H](CC(N)=O)NC(=O)[C@@H](NC(C)=O)C(C)(C)SSC(C)(C)[C@@H](C(=O)N[C@@H](Cc2ccc(OCCCCC[N+](C)(C)C)cc2)C(=O)N[C@@H](Cc2ccc3ccccc3c2)C(=O)NC2(C(=O)N[C@@H](CCCCNC(C)=O)C(=O)N[C@@H](CC(N)=O)C(=O)N[C@@H](Cc3cccnc3)C(=O)N(C)CC(N)=O)CCOCC2)NC1=O` is 8 pM; for `CC(=O)N[C@@H](CCCC[N+](C)(C)C)C(=O)N[C@@H]1C(=O)N[C@@H](CC(=O)N(C)C)C(=O)N[C@@H]([C@@H](C)O)C(=O)N[C@@H](Cc2c[nH]c3c(C)cccc23)C(=O)N[C@@H](CCCCN(C)C(C)=O)C(=O)N[C@H](C(=O)N[C@@H](Cc2ccc(OCCN(C)C)cc2)C(=O)N[C@@H](Cc2ccc3ccccc3c2)C(=O)NC2(C(=O)N[C@@H](CCC(=O)O)C(=O)N[C@@H](CC(N)=O)C(=O)N[C@@H](Cc3cccnc3)C(=O)N(C)CC(=O)N(C)C)CCOCC2)C(C)(C)SSC1(C)C` (Ac-[Lys(Me3)][Pen]D(NMe2)T[Trp(7-Me)][Lys(Me)](Ac)[Pen]Y(Me2NCH2CH2)[2Nal][Thp]EN[3Pal][Sar]-NMe2; disulfide 2-7) it is 8 pM; for `CC(=O)N(C)CCCC[C@@H]1NC(=O)[C@H](Cc2c[nH]c3c(C)cccc23)NC(=O)[C@H]([C@@H](C)O)NC(=O)[C@H](CC(=O)N(C)C)NC(=O)[C@@H](NC(=O)C(F)(F)F)C(C)(C)SSC(C)(C)[C@@H](C(=O)N[C@@H](Cc2ccc(OCCN(C)C)cc2)C(=O)N[C@@H](Cc2ccc3ccccc3c2)C(=O)NC2(C(=O)N[C@@H](CCC(=O)O)C(=O)N[C@@H](CC(N)=O)C(=O)N[C@@H](Cc3cccnc3)C(=O)N(C)CC(=O)N(C)C)CCOCC2)NC1=O` (Tfa-[Pen]D(NMe2)T[Trp(7-Me)][Lys(Me)](Ac)[Pen]Y(Me2NCH2CH2)[2Nal][Thp]EN[3Pal][Sar]-NMe2; disulfide 1-6) it is 3 pM. Turning to `Cc1cccc2c(C[C@@H]3NC(=O)[C@H]([C@@H](C)O)NC(=O)[C@H](CC(N)=O)NC(=O)[C@@H](NC(=O)C(F)(F)F)C(C)(C)SSC(C)(C)[C@@H](C(=O)N[C@@H](Cc4ccc(OCCN)cc4)C(=O)N[C@@H](Cc4ccc5ccccc5c4)C(=O)NC4(C(=O)N[C@@H](CCC(=O)N(C)C)C(=O)N[C@@H](CC(N)=O)C(=O)N[C@@H](Cc5cccnc5)C(=O)N(C)CC(N)=O)CCOCC4)NC(=O)[C@H](CCC(=O)N(C)C)NC3=O)c[nH]c12` (Tfa-[Pen]NT[Trp(7-Me)]E(NMe2)[Pen][AEF][2Nal][Thp]E(NMe2)N[3Pal][Sar]-NH2; disulfide 1-6), the IC50 came out at 8 pM.
